# Measurements published in patent US6770597B2, “Benzohydrazide derivatives as herbicides and desiccant compositions containing them” (Ishihara Sangyo Kaisha, Ltd., priority 2002, dated 2004).
# Assays:
# Type in all cases: in vivo
# [1] = test system: field corn (Zea mays L., var. Dekalb 535, CORN); assay: Greenhouse herbicide screen, pre-emerge application, crop damage rating; conditions: PRE emergent, 14 days after application, rating scale 0-100
# Procedure, shortened: (§1)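 Scoring at 14 days used a 0–100 scale, 100 being all plants dead, for weed control and crop injury alike. Rates ranged from 15 to 1000 g ai/ha, applied in acetone at 187 l/ha by track sprayer. Post-emerge treatment hit 2–3 leaf plants; pre-emerge treatment hit soil seeded one day earlier.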
# [2] = test system: upland rice (Oryza sp., var.Cocodrie, RICE); assay: as above; conditions: PRE emergent, 14 days after application, rating scale 0-100
# Procedure, shortened: as §1
# [3] = test system: velvetleaf (Abutilon theophrasti, ABUTH); assay: Greenhouse herbicide screen, post-emerge application, phytotoxicity rating; conditions: POST emergent, 14 days after application, scale 0-100
# Procedure, shortened: as §1
# [4] = test system: sicklepod (Cassia obtusifolia, CASOB); assay: as above; conditions: POST emergent, 14 days after application, scale 0-100
# Procedure, shortened: as §1
# [5] = test system: cocklebur (Xanthium strumarium, XANST); assay: as above; conditions: POST emergent, 14 days after application, scale 0-100
# Procedure, shortened: as §1
# [6] = test system: common ragweed (Ambrosia artemisiifolia L., AMBEL); assay: as above; conditions: POST emergent, 14 days after application, scale 0-100
# Procedure, shortened: as §1
# [7] = test system: ivyleaf morningglory (Ipomoea hederacea, IPOHE); assay: as above; conditions: POST emergent, 14 days after application, scale 0-100
# Procedure, shortened: as §1
# [8] = test system: lambsquarters (Chenopodium album, CHEAL); assay: as above; conditions: POST emergent, 14 days after application, scale 0-100
# Procedure, shortened: as §1
# [9] = test system: barnyardgrass (Echinochloa crus-galli, ECHCG); assay: as above; conditions: POST emergent, 14 days after application, scale 0-100
# Procedure, shortened: as §1
# [10] = test system: redroot pigweed (Amaranthus retrofiexus, AMARE); assay: as above; conditions: POST emergent, 14 days after application
# Procedure, shortened: as §1
# [11] = test system: green foxtail (Setaria viridis, SETVI); assay: as above; conditions: POST emergent, 14 days after application, scale 0-100
# Procedure, shortened: as §1
# [12] = test system: large crabgrass (Digitaria sanguinalis, DIGSA); assay: as above; conditions: POST emergent, 14 days after application, scale 0-100
# Procedure, shortened: as §1
# [13] = test system: johnsongrass (Sorghum halepense, SORHA); assay: as above; conditions: POST emergent, 14 days after application, scale 0-100
# Procedure, shortened: as §1
# [14] = test system: velvetleaf (Abutilon theophrasti, ABUTH); assay: Greenhouse herbicide screen, pre-emerge application, phytotoxicity rating; conditions: PRE emergent, 14 days after application, rating scale 0-100
# Procedure, shortened: as §1
# [15] = test system: sicklepod (Cassia obtusifolia, CASOB); assay: as above; conditions: PRE emergent, 14 days after application, rating scale 0-100
# Procedure, shortened: as §1
# [16] = test system: cocklebur (Xanthium strumarium, XANST); assay: as above; conditions: PRE emergent, 14 days after application, rating scale 0-100
# Procedure, shortened: as §1
# [17] = test system: common ragweed (Ambrosia artemisiifolia L., AMBEL); assay: as above; conditions: PRE emergent, 14 days after application, rating scale 0-100
# Procedure, shortened: as §1
# [18] = test system: ivyleaf morningglory (Ipomoea hederacea, IPOHE); assay: as above; conditions: PRE emergent, 14 days after application, rating scale 0-100
# Procedure, shortened: as §1
# [19] = test system: lambsquarters (Chenopodium album, CHEAL); assay: as above; conditions: PRE emergent, 14 days after application, rating scale 0-100
# Procedure, shortened: as §1
# [20] = test system: barnyardgrass (Echinochloa crus-galli, ECHCG); assay: as above; conditions: PRE emergent, 14 days after application, rating scale 0-100
# Procedure, shortened: as §1
# [21] = test system: redroot pigweed (Amaranthus retrofiexus, AMARE); assay: as above; conditions: PRE emergent, 14 days after application, rating scale 0-100
# Procedure, shortened: as §1
# [22] = test system: green foxtail (Setaria viridis, SETVI); assay: as above; conditions: PRE emergent, 14 days after application, rating scale 0-100
# Procedure, shortened: as §1
# [23] = test system: large crabgrass (Digitaria sanguinalis, DIGSA); assay: as above; conditions: PRE emergent, 14 days after application, rating scale 0-100
# Procedure, shortened: as §1
# [24] = test system: johnsongrass (Sorghum halepense, SORHA); assay: as above; conditions: PRE emergent, 14 days after application, rating scale 0-100
# Procedure, shortened: as §1
# [25] = test system: field corn (Zea mays L., var. Dekalb 535, CORN); assay: Greenhouse herbicide screen, post-emerge application, crop damage rating; conditions: POST emergent, 14 days after application, scale 0-100
# Procedure, shortened: as §1
# [26] = test system: upland rice (Oryza sp., var.Cocodrie, RICE); assay: as above; conditions: POST emergent, 14 days after application, scale 0-100
# Procedure, shortened: as §1
# [27] = 63 g ai/ha, scale 0-100 (0 no damage, 100 complete death)
smiles,measurement,setting,value
CCOC(=O)NNC(=O)c1cc(-n2c(=O)cc(C(F)(F)F)n(C)c2=O)c(F)cc1Cl [Compound 1-23],crop damage rating CORN,[1]; 63 g ai/ha,80
same,crop damage rating CORN,[1]; 250 g ai/ha,100
same,crop damage rating RICE,[2]; 63 g ai/ha,45
same,crop damage rating RICE,[2]; 250 g ai/ha,85
same,phytotoxicity rating ABUTH,[3]; 63 g ai/ha,100
same,phytotoxicity rating ABUTH,[3]; 250 g ai/ha,100
same,phytotoxicity rating CASOB,[4]; 63 g ai/ha,98
same,phytotoxicity rating CASOB,[4]; 250 g ai/ha,98
same,phytotoxicity rating XANST,[5]; 63 g ai/ha,100
same,phytotoxicity rating XANST,[5]; 250 g ai/ha,100
same,phytotoxicity rating AMBEL,[6]; 63 g ai/ha,85
same,phytotoxicity rating AMBEL,[6]; 250 g ai/ha,100
same,phytotoxicity rating IPOHE,[7]; 63 g ai/ha,98
same,phytotoxicity rating IPOHE,[7]; 250 g ai/ha,100
same,phytotoxicity rating CHEAL,[8]; 63 g ai/ha,100
same,phytotoxicity rating CHEAL,[8]; 250 g ai/ha,100
same,phytotoxicity rating ECHCO,[9]; 63 g ai/ha,50
same,phytotoxicity rating ECHCO,[9]; 250 g ai/ha,75
same,phytotoxicity rating AMARE,[10]; [27],100
same,phytotoxicity rating AMARE,"[10]; 250 g ai/ha, scale 0-100",100
same,phytotoxicity rating SETVI,[11]; 63 g ai/ha,55
same,phytotoxicity rating SETVI,[11]; 250 g ai/ha,99
same,phytotoxicity rating DIGSA,[12]; 63 g ai/ha,75
same,phytotoxicity rating DIGSA,[12]; 250 g ai/ha,75
same,phytotoxicity rating SORHA,[13]; 63 g ai/ha,70
same,phytotoxicity rating SORHA,[13]; 250 g ai/ha,99
same,phytotoxicity rating ABUTH,[14]; 63 g ai/ha,100
same,phytotoxicity rating ABUTH,[14]; 250 g ai/ha,100
same,phytotoxicity rating CASOB,[15]; 63 g ai/ha,98
same,phytotoxicity rating CASOB,[15]; 250 g ai/ha,98
same,phytotoxicity rating XANST,[16]; 63 g ai/ha,100
same,phytotoxicity rating XANST,[16]; 250 g ai/ha,100
same,phytotoxicity rating AMBEL,[17]; 63 g ai/ha,85
same,phytotoxicity rating AMBEL,[17]; 250 g ai/ha,100
same,phytotoxicity rating IPOHE,[18]; 63 g ai/ha,98
same,phytotoxicity rating IPOHE,[18]; 250 g ai/ha,100
same,phytotoxicity rating CHEAL,[19]; 63 g ai/ha,100
same,phytotoxicity rating CHEAL,[19]; 250 g ai/ha,100
same,phytotoxicity rating ECHCG,[20]; 63 g ai/ha,50
same,phytotoxicity rating ECHCG,[20]; 250 g ai/ha,75
same,phytotoxicity rating AMARE,[21]; 63 g ai/ha,100
same,phytotoxicity rating AMARE,[21]; 250 g ai/ha,100
same,phytotoxicity rating SETVI,[22]; 63 g ai/ha,55
same,phytotoxicity rating SETVI,[22]; 250 g ai/ha,99
same,phytotoxicity rating DIGSA,[23]; 63 g ai/ha,75
same,phytotoxicity rating DIGSA,[23]; 250 g ai/ha,75
same,phytotoxicity rating SORHA,[24]; 63 g ai/ha,70
same,phytotoxicity rating SORHA,[24]; 250 g ai/ha,99
same,crop damage rating CORN,[25]; 63 g ai/ha,80
same,crop damage rating CORN,[25]; 250 g ai/ha,100
same,crop damage rating RICE,[26]; 63 g ai/ha,45
same,crop damage rating RICE,[26]; 250 g ai/ha,85
Cn1c(C(F)(F)F)cc(=O)n(-c2cc(C(=O)NN3CCCC3)c(Cl)cc2F)c1=O [Compound 1-11],crop damage rating CORN,[1]; 63 g ai/ha,0
same,crop damage rating CORN,[1]; 250 g ai/ha,50
same,crop damage rating RICE,[2]; 63 g ai/ha,5
same,crop damage rating RICE,[2]; 250 g ai/ha,55
same,phytotoxicity rating ABUTH,[3]; 63 g ai/ha,100
same,phytotoxicity rating ABUTH,[3]; 250 g ai/ha,100
same,phytotoxicity rating CASOB,[4]; 63 g ai/ha,15
same,phytotoxicity rating CASOB,[4]; 250 g ai/ha,80
same,phytotoxicity rating XANST,[5]; 63 g ai/ha,75
same,phytotoxicity rating XANST,[5]; 250 g ai/ha,100
same,phytotoxicity rating AMBEL,[6]; 63 g ai/ha,99
same,phytotoxicity rating AMBEL,[6]; 250 g ai/ha,100
same,phytotoxicity rating IPOHE,[7]; 63 g ai/ha,100
same,phytotoxicity rating IPOHE,[7]; 250 g ai/ha,100
same,phytotoxicity rating CHEAL,[8]; 63 g ai/ha,90
same,phytotoxicity rating CHEAL,[8]; 250 g ai/ha,100
same,phytotoxicity rating ECHCO,[9]; 63 g ai/ha,70
same,phytotoxicity rating ECHCO,[9]; 250 g ai/ha,100
same,phytotoxicity rating AMARE,[10]; [27],100
same,phytotoxicity rating AMARE,"[10]; 250 g ai/ha, scale 0-100",100
same,phytotoxicity rating SETVI,[11]; 63 g ai/ha,50
same,phytotoxicity rating SETVI,[11]; 250 g ai/ha,55
same,phytotoxicity rating DIGSA,[12]; 63 g ai/ha,40
same,phytotoxicity rating DIGSA,[12]; 250 g ai/ha,55
same,phytotoxicity rating SORHA,[13]; 63 g ai/ha,70
same,phytotoxicity rating SORHA,[13]; 250 g ai/ha,80
same,phytotoxicity rating ABUTH,[14]; 63 g ai/ha,100
same,phytotoxicity rating ABUTH,[14]; 250 g ai/ha,100
same,phytotoxicity rating CASOB,[15]; 63 g ai/ha,70
same,phytotoxicity rating CASOB,[15]; 250 g ai/ha,99
same,phytotoxicity rating XANST,[16]; 63 g ai/ha,0
same,phytotoxicity rating XANST,[16]; 250 g ai/ha,40
same,phytotoxicity rating AMBEL,[17]; 63 g ai/ha,60
same,phytotoxicity rating AMBEL,[17]; 250 g ai/ha,98
same,phytotoxicity rating IPOHE,[18]; 63 g ai/ha,70
same,phytotoxicity rating IPOHE,[18]; 250 g ai/ha,100
same,phytotoxicity rating CHEAL,[19]; 63 g ai/ha,100
same,phytotoxicity rating CHEAL,[19]; 250 g ai/ha,100
same,phytotoxicity rating ECHCG,[20]; 63 g ai/ha,15
same,phytotoxicity rating ECHCG,[20]; 250 g ai/ha,99
same,phytotoxicity rating AMARE,[21]; 63 g ai/ha,100
same,phytotoxicity rating AMARE,[21]; 250 g ai/ha,100
same,phytotoxicity rating SETVI,[22]; 63 g ai/ha,50
same,phytotoxicity rating SETVI,[22]; 250 g ai/ha,100
same,phytotoxicity rating DIGSA,[23]; 63 g ai/ha,50
same,phytotoxicity rating DIGSA,[23]; 250 g ai/ha,100
same,phytotoxicity rating SORHA,[24]; 63 g ai/ha,35
same,phytotoxicity rating SORHA,[24]; 250 g ai/ha,99
same,crop damage rating CORN,[25]; 63 g ai/ha,35
same,crop damage rating CORN,[25]; 250 g ai/ha,95
same,crop damage rating RICE,[26]; 63 g ai/ha,65
same,crop damage rating RICE,[26]; 250 g ai/ha,65
